Consider nine compounds from article PMC5978685, “Design, Synthesis, and Evaluation of Novel Immunomodulatory Small Molecules Targeting the CD40–CD154 Costimulatory Protein-Protein Interaction” (Molecules : A Journal of Synthetic Chemistry and Natural …, 2018).

Molecules are shown by their SMILES.

Usually IC50 stands for the concentration needed to halve the response being measured.

One assay concerns the target T1, OX40–OX40L (Homo sapiens, UniProt P23510).
T1 construct: purchased Enzo Life Sciences
T1 sequence (P23510 51-183 limits assumed): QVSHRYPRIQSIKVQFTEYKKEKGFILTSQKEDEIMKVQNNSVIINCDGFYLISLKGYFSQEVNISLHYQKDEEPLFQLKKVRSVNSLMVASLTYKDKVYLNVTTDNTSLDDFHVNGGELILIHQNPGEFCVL
The assay is described as follows: cell-free ELISA-type binding inhibition assay, OX40–OX40L. How it is done: (§1) In parallel with the CD40–CD154 assay, the ability of these compounds to inhibit other TNFSFR–TNFSF PPIs, including OX40–OX40L, BAFFR–BAFF, and TNF-R1–TNF-α, was also assessed (Figure 3B–D).
(§2) Binding inhibition assays were performed in a 96-well cell-free format as described before. Briefly, microtiter plates (Nunc F Maxisorp, 96-well; Thermo Fisher Scientific, Waltham, MA, USA) were coated overnight at 4 °C with 100 μL/well of Fc-conjugated receptors diluted in PBS pH 7.2. This was followed by blocking with 200 μL/well of blocking solution (PBS pH 7.2, 0.05% Tween-20, 1% BSA) for 1 h at RT. Then, plates were washed twice using washing solution (PBS pH 7.4, 0.05% Tween-20) and tapped dry before the addition of the appropriate FLAG tagged ligands along with different concentrations of tested dyes diluted in binding buffer (100 mM HEPES, 0.005% BSA pH 7.2) to give a total volume of 100 μL/well. After 1 h incubation, three washes were conducted, and anti-FLAG HRP conjugate was used to detect the bound FLAG-tagged ligand. Plates were washed four times before the addition of 120 μL/well of HRP substrate TMB (3,3′,5,5′-tetramethylbenzidine) and kept in the dark for up to 15 min. The reaction was stopped using 30 μL of 1M H2SO4, and the absorbance value was read at 450 nm. The concentrations of receptors used were 0.3 μg/mL for CD40, TNF-R1, and BAFFR; 0.6 μg/mL for OX40. The concentrations of the ligands were fixed at 0.02 μg/mL for CD154 and TNF-α, 0.06 μg/mL for OX40L, and 0.03 μg/mL for BAFF. These values were selected following preliminary testing to optimize response (i.e., to produce a high-enough signal at conditions close to half-maximal response, EC50). […] To verify that inhibition is not due to colloidal aggregation, CD40 binding inhibition was also measured in the presence of the non-ionic detergent Triton-X 100 (0.01%), as recommended for the detection of such effects.
(§3) All binding inhibition and cell assays were tested in duplicate or triplicate per plates, and assays were performed as at least three independent experiments. As before, binding and cytotoxicity data were converted to percent inhibition and fitted with standard log inhibitor vs. normalized response models using nonlinear regression in GraphPad Prism (GraphPad, La Jolla, CA, USA) to establish half-maximal (median) inhibitory concentration (IC50) or median lethal concentration (LC50) values. Cell assay data were fitted with a similar model that also allowed for a variable slope using the log inhibitor vs. normalized response (variable slope) model from Prism with a Hill slope (n) shared across all compounds. Cell assays and draining lymph node data were analyzed by one-way repeated-measures analysis of variance (ANOVA) followed by Dunnett’s multiple comparison test as a post hoc test for individual differences using GraphPad Prism and a significance level of p < 0.05 for all comparisons.
(§4) Data are (counterclockwise) for human CD40–CD154 (CD40L) (A); OX40–OX40L (B); BAFFR–BAFF (C); and TNF-R1–TNFα (D) and were fitted with standard binding curves. Data are average ± SD (normalized to percent binding) for n = 3 independent experiments with duplicates for each condition.

Another assay concerns the target T2, CD40–CD154 (CD40L) (Homo sapiens, UniProt P29965).
T2 construct: purchased Enzo Life Sciences
T2 sequence (P29965 116-261 limits assumed): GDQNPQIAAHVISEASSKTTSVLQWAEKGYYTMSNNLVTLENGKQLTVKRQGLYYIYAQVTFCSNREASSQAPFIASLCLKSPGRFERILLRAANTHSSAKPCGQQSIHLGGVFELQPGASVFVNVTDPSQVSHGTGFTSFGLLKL
As to the kind of experiment: cell-free ELISA-type binding inhibition assay, CD40–CD154. The following applies: cell-free CD40–CD154 binding inhibition; read-out: CD40 IC50.
Source text: As a first assessment, the CD40–CD154 inhibitory activity of compounds 6–19 (Figure 2, Table 1) was quantified using a cell-free in vitro binding inhibition assay as described before. Data fitted with typical sigmoidal concentration dependence curves (log inhibitor versus response model in GraphPad Prism, Hill slope n = 1) are summarized in Figure 3A. […] Polymolecular conglomeration and/or aggregation is often a cause of promiscuous inhibition in screening assays. Therefore, just as in our previous work, we checked for this, and we confirmed for several compounds that inhibition due to aggregation is not the case by retesting inhibitory activity in the presence of a non-ionic detergent (Triton-X 100, 0.01%) as recommended for the detection of such effects.
as §2, §3, §4
For orientation: An ELISA detects its analyte on a solid surface through an enzyme-linked reagent.

The next assay concerns the target T3, TNF-R1–TNFα (Homo sapiens, UniProt P01375).
T3 construct: purchased Enzo Life Sciences
The assay is described as follows: cell-free ELISA-type binding inhibition assay, TNF-R1–TNFα. The following applies: cell-free TNF-R1–TNFα binding inhibition; read-out: TNF IC50. As to the method: as §1, §2, §3, §4

The next assay has as its target T4, BAFFR–BAFF (Homo sapiens, UniProt Q9Y275).
T4 construct: purchased Enzo Life Sciences
The assay is described as follows: cell-free ELISA-type binding inhibition assay, BAFFR–BAFF. As to the method: as §1, §2, §3, §4

Assay [1] relates to alloantigen-induced T cell response in draining popliteal lymph node. As to the kind of experiment: alloantigen-induced T cell expansion in draining lymph node. It counts as in vivo, mouse (Balb/c). The following applies: Balb/c mice, DBA-2 splenocytes in footpad; 10–20 mg/kg s.c. b.i.d.; p < 0.0001 vs vehicle. As to the method:
The most promising compounds of the present series were evaluated for in vivo activity using the same model of alloantigen-induced T cell expansion in the draining lymph nodes (DLNs) that was described before. This procedure involved injection of splenocytes isolated from DBA-2 mice into the footpad of Balb/c recipients. Within three full days, this causes a significant increase in the number of cells in the draining popliteal lymph node, and this is inhibited by compounds with immunosuppressive activity.
The ability to inhibit alloantigen-induced T cell response in a draining lymph node was tested as described before. In brief, BALB/c mice (10–12 weeks old, female) received a footpad injection of 1 × 10^7 splenocytes isolated from DBA-2 mice (10–12 weeks old, male). CD154 antibody (MR-1; 20 mg/kg, day −1 and 0) or test compounds (20–60 mg/kg; b.i.d. from day −1 to 3, in 20% HPβCD) were administered s.c., and the draining popliteal lymph nodes (DLNs) were collected 3 days after the alloantigen challenge. DLN cells were counted and data are shown as mean ± SD (n = 3–4 per group).
as §3
Figure 6 Inhibition of alloantigen-induced T cell response in a draining lymph node by compounds 6, 15, 18, and 19. Mice (Balb/c) received a footpad injection of allogeneic splenocytes (isolated from DBA-2 mice) and were treated with anti-CD154 antibody (MR-1; 20 mg/kg, day −1 and 0) or compounds as shown (10–40 mg/kg, b.i.d. from day −1 to 3, s.c. in 20% HPβCD). Draining (popliteal) lymph nodes were collected three days after the alloantigen challenge and cells were counted. Data are shown as mean ± SD. Significant differences compared to vehicle-treated controls are indicated by asterisks (**** p < 0.0001; one-way ANOVA followed by Dunnett’s multiple comparison test).

T4 sequence (Q9Y275 134-285 limits assumed): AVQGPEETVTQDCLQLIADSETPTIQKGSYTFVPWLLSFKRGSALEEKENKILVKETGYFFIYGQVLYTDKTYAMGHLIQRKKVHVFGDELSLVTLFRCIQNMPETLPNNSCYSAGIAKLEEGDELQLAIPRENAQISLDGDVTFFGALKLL
T3 sequence (P01375 85-233 limits assumed): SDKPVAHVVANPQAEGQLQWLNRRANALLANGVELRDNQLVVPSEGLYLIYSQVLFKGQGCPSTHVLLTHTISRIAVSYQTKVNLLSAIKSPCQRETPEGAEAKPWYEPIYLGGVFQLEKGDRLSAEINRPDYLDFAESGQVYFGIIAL

Regarding `COC(=O)c1ccc(C(=O)Nc2ccc(-c3ccc(C(=O)Nc4cccc5cccc(S(=O)(=O)O)c45)cc3)cc2)cc1[N+](=O)[O-]` [Compound 13, 8-(4′-(4-(Methoxycarbonyl)-3-nitrobenzamido)biphenyl-4-ylcarboxamido)naphthalene-1-sulfonic acid], the IC50 at OX40–OX40L is 86.2 µM; on CD40–CD154 (CD40L) it was 0.39 µM; at TNF-R1–TNFα, 674 µM; at BAFFR–BAFF, 5.27 µM.

`O=C(Nc1ccc(-c2ccc(C(=O)Nc3cccc4cccc(S(=O)(=O)O)c34)cc2)cc1)c1ccc(C(F)(F)F)cc1` [Compound 8, 8-(4′-(4-(trifluoromethyl)benzamido)biphenyl-4-ylcarboxamido)naphthalene-1-sulfonic acid]: the IC50 is 10.1 µM on OX40–OX40L, 57.8 µM at CD40–CD154 (CD40L), 61.1 µM on TNF-R1–TNFα and 42.2 µM at BAFFR–BAFF.

For `COC(=O)c1cccc2c(NC(=O)c3ccc(-c4ccc(NC(=O)c5ccc([N+](=O)[O-])cc5)cc4)cc3)cccc12` [Compound 9, Methyl 5-(4′-(4-nitrobenzamido)-[1,1′-biphenyl]-4-carboxamido)-1-naphthoate], the IC50 on OX40–OX40L is over 1000 µM; at CD40–CD154 (CD40L), 56 µM; at TNF-R1–TNFα, 796 µM; at BAFFR–BAFF, 686 µM.

On to `O=C(Nc1ccc(-c2ccc(C(=O)Nc3cccc4c(S(=O)(=O)O)cccc34)cc2)cc1)c1ccc([N+](=O)[O-])cc1` [Compound 7, 5-(4′-(4-Nitrobenzamido)-[1,1′-biphenyl]-4-carboxamido)naphthalene-1-sulfonic acid], for which the IC50 was 9.34 µM on OX40–OX40L, 0.299 µM at CD40–CD154 (CD40L), 555 µM on TNF-R1–TNFα and 2.01 µM at BAFFR–BAFF.

On to `Cc1cc(NC(=O)c2ccc([N+](=O)[O-])cc2)ccc1-c1ccc(C(=O)Nc2cccc3cccc(S(=O)(=O)O)c23)cc1C` [Compound 16, 8-(2,2′-Dimethyl-4′-(4-nitrobenzamido)-[1,1′-biphenyl]-4-carboxamido)naphthalene-1-sulfonic acid], for which the IC50 at OX40–OX40L was 7.28 µM; on CD40–CD154 (CD40L), 44.8 µM; at TNF-R1–TNFα, 61.5 µM; on BAFFR–BAFF, 26.7 µM.

Turning to `O=C(Nc1cccc2cccc(S(=O)(=O)O)c12)c1ccc(-c2ccc(NC(=O)c3ccc([N+](=O)[O-])cc3[N+](=O)[O-])cc2)cc1` [Compound 12, 8-(4′-(2,4-Dinitrobenzamido)-[1,1′-biphenyl]-4-carboxamido)naphthalene-1-sulfonic acid], the IC50 on OX40–OX40L turned out to be 10.3 µM; at CD40–CD154 (CD40L), 50.5 µM; at TNF-R1–TNFα, 61.7 µM; at BAFFR–BAFF, 38.1 µM.

Consider `O=C(Nc1ccc2cc(C(=O)Nc3cccc4cccc(S(=O)(=O)O)c34)ccc2c1)c1ccc([N+](=O)[O-])cc1` [Compound 17, 8-(6-(4-Nitrobenzamido)-2-naphthamido)naphthalene-1-sulfonic acid], for which the IC50 stood at 36.6 µM at OX40–OX40L, 57.5 µM at CD40–CD154 (CD40L), 118 µM at TNF-R1–TNFα and 81.4 µM on BAFFR–BAFF.

As for `O=C(Nc1ccc(-c2ccc(C(=O)Nc3ccc(S(=O)(=O)O)c4cccc(S(=O)(=O)O)c34)cc2)cc1)c1ccc([N+](=O)[O-])cc1` [Compound 10, 4-(4′-(4-Nitrobenzamido)-[1,1′-biphenyl]-4-carboxamido)naphthalene-1,5-disulfonic acid], the IC50 on OX40–OX40L was 135 µM; on CD40–CD154 (CD40L) it was 68.3 µM; at TNF-R1–TNFα it was 688 µM; at BAFFR–BAFF, 440 µM.

For `COC(=O)c1ccc(C(=O)Nc2ccc(-c3ccc(C(=O)Nc4cccc5cccc(S(=O)(=O)O)c45)cc3)nc2)cc1` [Compound 19, 8-(4-(5-(4-(Methoxycarbonyl)benzamido)pyridin-2-yl)benzamido)naphthalene-1-sulfonic acid], the IC50 on OX40–OX40L was determined as 6.97 µM; on CD40–CD154 (CD40L), 2.41 µM; at TNF-R1–TNFα it was 182 µM; on BAFFR–BAFF, 13.8 µM. Moreover, the “inhibition of alloantigen-induced T cell expansion in draining lymph node” value in assay [1] is given as “inhibited the alloantigen-induced T cell response in this model in statistically significant manner”.
